In ChEMBL document CHEMBL1145063, “Structure-based design of a macrocyclic inhibitor for peptide deformylase” (J Med Chem, 2003):
pIC50, pKi: −log10 of the molar value. Converted amounts (≈) assume the structure as drawn.

Key:
[1] = molecular target: T1, Peptide deformylase (Escherichia coli, UniProt Q9JN24); assay: Inhibitory concentration against peptide deformylase was determined
T1 sequence (Q9JN24 whole entry): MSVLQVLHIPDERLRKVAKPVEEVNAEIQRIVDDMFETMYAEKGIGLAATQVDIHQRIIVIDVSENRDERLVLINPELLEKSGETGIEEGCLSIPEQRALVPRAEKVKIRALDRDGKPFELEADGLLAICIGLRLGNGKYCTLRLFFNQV

[2] = tested on: Bacillus subtilis; assay: In vitro minimal inhibitory concentration against Bacillus subtilis was determined; type: functional
[3] = molecular target: T1, Peptide deformylase; assay: Binding affinity against Co(II)-substituted Escherichia coli peptide deformylase was determined
[4] = tested on: Escherichia coli; assay: In vitro minimal inhibitory concentration against Escherichia coli was determined; type: functional

| MIC [2] [µM] | pKi [3] | MIC [4] [µM] | Compound | pIC50 [1] |
| --- | --- | --- | --- | --- |
| – | – | – | CCCCC(CN(O)C=O)C(=O)N[C@H](C(=O)N(C)C)C(C)(C)C (some centres undefined) | 8.15 |
| 4 (≈ 1.48 µg/mL) | 9.17 | 32 (≈ 11.8 µg/mL) | CC(C)(C)[C@@H]1NC(=O)C(CN(O)C=O)CCCCCCCCCNC1=O (some centres undefined) | – |
